Nine compounds from ChEMBL document CHEMBL3132801, “Meridianin G and its analogs as antimalarial agents” (Medchemcomm, 2013) can be followed below.

For data set [1], the system named is Aspergillus fumigatus. The data set is described as follows: Antimicrobial activity against Aspergillus fumigatus by NCCLS method. It counts as functional, organism-based.
The subject of data set [2] is Candida albicans. The experiment in a line: Antimicrobial activity against Candida albicans by NCCLS method. Type of data set: functional, organism-based.
The test system of data set [3] is Cryptococcus neoformans. The experiment in a line: Antimicrobial activity against Cryptococcus neoformans by NCCLS method. It counts as functional, organism-based.
The test system of data set [4] is Staphylococcus aureus. The experiment in a line: Antimicrobial activity against methicillin-resistant Staphylococcus aureus by NCCLS method. It counts as functional, organism-based.
Data set [5] relates to Staphylococcus aureus. The data set is described as follows: Antimicrobial activity against Staphylococcus aureus by NCCLS method. It counts as functional, organism-based.
The subject of data set [6] is Leishmania donovani. The data set is described as follows: Antileishmanial activity against Leishmania donovani promastigotes after 48 hrs by Alamar Blue assay. It counts as functional, organism-based. The following applies: for IC50: read-out: IC50. In general terms: The colour change of resazurin is a common sign of viable cells or microbes.
The nature of data set [7]: Selectivity index, ratio of IC50 for pig LLC-PK1 cells to IC50 for Plasmodium falciparum W2. The settings on record: read-out: Ratio IC50. It counts as toxicity, cell-based.
The nature of data set [8]: Selectivity index, ratio of IC50 for african green monkey Vero cells to IC50 for Plasmodium falciparum W2. It counts as toxicity, cell-based. The following applies: read-out: Ratio IC50.
The nature of data set [9]: Selectivity index, ratio of IC50 for human HepG2 cells to IC50 for Plasmodium falciparum W2. It counts as toxicity, cell-based. The settings on record: read-out: Ratio IC50.
Data set [10] is described as follows: Selectivity index, ratio of IC50 for pig LLC-PK1 cells to IC50 for Plasmodium falciparum D6. Type of data set: toxicity, cell-based. The following applies: read-out: Ratio IC50.
Data set [11] in a line: Selectivity index, ratio of IC50 for african green monkey Vero cells to IC50 for Plasmodium falciparum D6. The following applies: read-out: Ratio IC50. It counts as toxicity, cell-based.
A short description of data set [12]: Selectivity index, ratio of IC50 for human HepG2 cells to IC50 for Plasmodium falciparum D6. Type of data set: toxicity, cell-based. The following applies: read-out: Ratio IC50.
Data set [13] relates to LLC-PK1. The experiment in a line: Cytotoxicity against a pig LLC-PK1 cells after 48 hrs by Neutral Red assay. Type of data set: cell-based. The settings on record: Sus scrofa, LLC-PK1, 48 h.
Data set [14] has as its system Vero. The experiment in a line: Cytotoxicity against african green monkey Vero cells after 48 hrs by Neutral Red assay. It counts as cell-based. The following applies: Chlorocebus sabaeus.
Data set [15] concerns HepG2. The data set is described as follows: Cytotoxicity against human HepG2 cells after 48 hrs by Neutral Red assay. The settings on record: HepG2, 48 h. It counts as cell-based.
Data set [16] relates to Plasmodium falciparum. The experiment in a line: Antimicrobial activity against Plasmodium falciparum W2 after 72 hrs by LDH activity assay. Type of data set: functional, organism-based.
Data set [17] relates to Plasmodium falciparum. The data set is described as follows: Antimicrobial activity against Plasmodium falciparum D6 after 72 hrs by LDH activity assay. It counts as functional, organism-based.
The test system of data set [18] is Plasmodium falciparum. The experiment in a line: Antimicrobial activity against Plasmodium falciparum NF54. It counts as functional.
Where [19] appears, read: Staphylococcus aureus, read-out: IC50.
The mark [20] stands for this setting: Plasmodium falciparum, W2, 72 h, read-out: IC50.
[21] abbreviates: Plasmodium falciparum, D6, 72 h, read-out: IC50.

In brackets after ≈: the same amount, converted by molar mass. Activity calls are given as the source filed them. No cut-off for these calls is given here. Bounds are passed on as bounds.

Usually IC50 stands for the concentration that gives 50% inhibition. In general, MBC refers to the lowest tested concentration that kills the bacteria rather than only halting them. In general, MIC refers to the lowest concentration that inhibits growth of the organism. What is called IC90 is the point of the concentration-response curve where the effect stands at 90%. For the compound `Nc1nccc(-c2cn(Cc3ccc(Cl)s3)c3ccc(Br)cc23)n1`, the result in data set [1] and in data set [2] was inactive. The 50% inhibitory concentration (IC50) in data set [3] is 19.9 µM; in [4], “Not Active”; in [5] (setting [19]) it was 40.5 µM; in data set [6] (Leishmania donovani, 48 h), 29.1 µM; in data set [13], > 60 µM; in data set [14], > 60 µM. Also, the IC50 in data set [15] is > 60 µM; in data set [16] (setting [20]), 10.1 µM; in data set [17] (setting [21]) it was 13.6 µM. In [3], this compound showed an MBC of 47.7 µM (≈ 20 µg/mL). In data set [3], this compound gave an MIC of 47.7 µM (≈ 20 µg/mL). Also, the MBC result in data set [4] and in [5] was “inactive” each time. The MIC result in data set [4] and in data set [5] was “inactive” each time. This compound came in with an IC90 in data set [6] (Leishmania donovani, 48 h) of 41.2 µM. Further, the selectivity ratio in data set [7] is > 5.9; in [8] it was > 5.9; in [9] it was > 5.9; in [10], > 4.4; in data set [11] it was > 4.4; in data set [12] it was > 4.4.
Take `O=C1NC(c2c[nH]c3ccc(Br)cc23)Nc2ccccc21` (stereo not given): the result in data set [1] and in data set [2] was inactive. For the same compound, the IC50 in data set [3] is 14.8 µM; in data set [4] (setting [19]) it was 20.9 µM; in data set [5] (setting [19]), 25.2 µM; in data set [6] (Leishmania donovani, 48 h) it was 79.9 µM; in data set [13], 53 µM; in data set [14], > 73 µM. Moreover, the IC50 in [15] was 73 µM; in [16] it was “Not Active”; in data set [17], “Not Active”. The MBC result in [3], in [4] and in [5] was “inactive” each time. Further, the MIC entry in data set [3], in [4] and in [5] was “inactive” each time.
For the compound `Nc1nccc(-c2cn(Cc3ccc(Cl)s3)c3ccccc23)n1`, the outcome in [1] and in data set [2] was inactive. For the same compound, the IC50 is 13 µM in data set [3]; “Not Active” in data set [4]; “Not Active” in [5]; 41.3 µM in [6] (Leishmania donovani, 48 h); > 74 µM in [13]; > 74 µM in [14]. Moreover, the IC50 in data set [15] was > 74 µM; in data set [16], “Not Active”; in [17], “Not Active”. This compound had an MBC in [3] of 14.7 µM (≈ 5.01 µg/mL). Moreover, in data set [3], the MIC amounted to 14.7 µM (≈ 5.01 µg/mL). The MBC result in [4] and in data set [5] was “inactive” throughout. In addition, the MIC result in data set [4] and in data set [5] was “inactive” in each case. Besides, in data set [6], the IC90 result is “inactive”.
Take `CCOc1ccccc1C(=O)n1cc(-c2ccnc(N)n2)c2ccccc21`: the outcome in [1] and in data set [2] was inactive. Also, the IC50 in data set [3] is 45.6 µM; in [4], “Not Active”; in data set [5] it was “Not Active”; in data set [6] (Leishmania donovani, 48 h), 47.4 µM; in data set [13], > 70 µM; in data set [14] it was > 70 µM. The IC50 in [15] is > 70 µM; in [16] it was “Not Active”; in data set [17] it was “Not Active”. Further, the MBC result in data set [3], in data set [4] and in [5] was “inactive” in each case. The MIC entry in [3], in data set [4] and in data set [5] was “inactive” in each case.
Turning to `COCCn1cc(-c2ccnc(N)n2)c2cc(Br)ccc21`, the result in [1] and in [2] was inactive. Further, the 50% inhibitory concentration (IC50) was 27.4 µM in data set [3]; “Not Active” in [4]; “Not Active” in data set [5]; 23.6 µM in [6] (Leishmania donovani, 48 h); 43 µM in [13]; > 72 µM in data set [14]. For the same compound, the IC50 in data set [15] was > 72 µM; in [16], “Not Active”; in [17], “Not Active”. Further, the MBC in [3] worked out at 57.6 µM (≈ 20 µg/mL). In data set [3], this compound gave an MIC of 57.6 µM (≈ 20 µg/mL). Moreover, the MBC entry in [4] and in [5] was “inactive” each time. The MIC entry in [4] and in data set [5] was “inactive” in each case. In data set [6] (Leishmania donovani, 48 h), this compound yielded an IC90 of 52.2 µM.
In data set [18], `CN1CCN(c2ncc(-c3ccccc3)c(-c3c[nH]c4ccccc34)n2)CC1` came in with an MIC of 3 µM (≈ 1.11 µg/mL).
On to `Nc1nccc(-c2cn(C(=O)c3ccccc3)c3ccc(Br)cc23)n1`, for which the outcome in data set [1] and in data set [2] was inactive. The IC50 in data set [3] is 24.3 µM; in data set [4] it was “Not Active”; in [5] it was “Not Active”; in [6] (Leishmania donovani, 48 h) it was 105 µM; in [13] it was > 64 µM; in data set [14], > 64 µM. Moreover, the 50% inhibitory concentration (IC50) was > 64 µM in data set [15], 3.98 µM in [16] (setting [20]) and 7.45 µM in [17] (setting [21]). Further, the MBC entry in data set [3], in data set [4] and in data set [5] was “inactive” throughout. Besides, the MIC entry in data set [3], in data set [4] and in [5] was “inactive” throughout. Besides, the selectivity ratio in data set [7] was > 16; in data set [8], > 16; in data set [9], > 16; in [10], > 8.5; in data set [11], > 8.5; in [12], > 8.5.
Regarding `Nc1nccc(-c2cn(CN3C(=O)c4ccccc4C3=O)c3ccc(Br)cc23)n1`, the outcome in [1], in data set [2], in [6], in data set [16] and in [17] was inactive. The figures for the 50% inhibitory concentration (IC50) in [3], in [4] and in [5] were 26.9 µM, “Not Active” and “Not Active”, respectively. Further, the MBC entry in [3], in [4] and in data set [5] was “inactive” throughout. Further, the MIC result in [3], in data set [4] and in data set [5] was “inactive” in each case.
With `Nc1nccc(-c2c[nH]c3ccc(Br)cc23)n1` [MERIDIANIN C], the outcome in data set [1] and in data set [2] was inactive. Moreover, the IC50 in data set [3] is 56.5 µM; in data set [4], “Not Active”; in data set [5], “Not Active”; in data set [6] (Leishmania donovani, 48 h) it was 64.9 µM; in data set [13] it was > 87 µM; in [14] it was > 87 µM. Moreover, the IC50 in data set [15] was > 87 µM; in [16] (setting [20]), 11.7 µM; in data set [17] (setting [21]), 14.4 µM. Besides, the MBC entry in [3], in data set [4] and in data set [5] was “inactive” each time. Further, the MIC entry in [3], in [4] and in [5] was “inactive” in each case. For the same compound, the selectivity ratio in [7] was > 7.4; in data set [8], > 7.4; in [9] it was > 7.4; in data set [10], > 6; in data set [11] it was > 6; in data set [12] it was > 6.
